Source: patent US10092648B2, “Selective glucagon-like-peptide-2 (GLP-2) analogues” (Zealand Pharma A/S, priority 2006, dated 2018)

Key:
[1] = amino acid side-chain; defined by W. D. Stein 1967; cited from earlier work
male C57BL mice [2] = assay: In vivo stimulation of intestinal growth, 800 nmol/kg (Example 10); design: key to Small intestine-colon sensitivity index: (SI/Colon) of compound divided by (SI/Colon) of reference GLP-2; conditions: 800 nmol/kg s.c. once daily for 3 days; for Colon: colon mass relative to BW, % vs. [Gly2]GLP-2; for SI (% vs. [Gly2]GLP-2: small intestine mass relative to BW, [Gly2]GLP-2 = 100%
Source text: Individual groups (n=6-10) of mice were given 800 nmol/kg of each compound, s.c, once daily for three consecutive days. For comparison purposes other groups of animals were given either an equimolar dose of [[…]]GLP-2 (ZP1559) or vehicle (phosphate buffered saline, pH 7.4) in the same dosing regimen Twenty-four hours after the last dose of compound had been given the mice were sacrificed and the small intestine (from the pylorus to the cecum) and the colon (intestine distal to cecum) was emptied and weighed. To correct for slight difference in body weight (BW), the organ mass of the small intestine (SI) and colon were expressed relative to BW. The non-selective reference compound [[…]]GLP-2 has been reported to stimulate gastrointestinal growth in both esophagus, stomach, small intestine and colon and to evaluate differences in growth pattern induced by compounds, the small intestine-colon sensitivity index of compound X was calculated as: […]

male C57BL mice [3] = assay: In vivo stimulation of stomach growth, 200 nmol/kg (Example 12)
Description: The effects of the test compounds according to the invention were determined based on the ability of the peptides to selectively increase stomach mass, relative to vehicle control. The ability of the present compounds (ZP2395, ZP2396, ZP2400, ZP2412, ZP2394 and ZP2401) to selectively stimulate stomach mass, relative to colon mass was determined in male C57BL mice. Individual groups (n=6-10) of mice were given 200 nmol/kg of each compound, s.c, once daily for three consecutive days. For comparison purposes other groups of animals were given either an equimolar dose of [[…]]GLP-2 or vehicle (phosphate buffered saline, pH 7.4) in the same dosing regimen. Twenty-four hours after the last dose of compound had been given the mice were sacrificed and the stomach and small intestine (from the pylorus to the ileocaecal junction) emptied and weighed. To correct for slight difference in body weight (BW), the organ mass of the stomach is presented relative to BW. […] To evaluate the differential growth pattern induced by ZP compounds, compared to [[…]]GLP-2, on the stomach, the stomach-colon sensitivity index of compound X was calculated as: (Stomach/Colon)x/Stomach/(Colon)[[…]]GLP-2% Compounds with a stomach/colon sensitivity greater than or equal to 1.05 were considered relatively selective for the stomach.

male C57BL mice [4] = assay: In vivo stimulation of intestinal growth, 200 nmol/kg (Example 11); conditions: for Sensitivity index Si/Colon: relative to 1559
Description: The ability of further compounds to selectively stimulate small intestinal mass, relative to colon mass was determined in male C57BL mice. A similar protocol was used to that described above in Example 10 except that 200 nmol/kg of each compound was administered per day. Thus, individual groups (n=6-10) of mice were given 200 nmol/kg of each compound, s.c, once daily for three consecutive days. Other groups of animals were given either an equimolar dose of [[…]]GLP-2 (reference compound) or vehicle (phosphate buffered saline, pH 7.4; negative controls) in the same dosing regimen. Twenty-four hours after the last dose of compound the mice were sacrificed and the stomach, small intestine and the colon emptied and weighed.

hGLP-2 receptor = target: T1, hGLP-2 receptor (human, UniProt O95838 1-553); assay: cell-based or functional assay
T1 sequence (looked up): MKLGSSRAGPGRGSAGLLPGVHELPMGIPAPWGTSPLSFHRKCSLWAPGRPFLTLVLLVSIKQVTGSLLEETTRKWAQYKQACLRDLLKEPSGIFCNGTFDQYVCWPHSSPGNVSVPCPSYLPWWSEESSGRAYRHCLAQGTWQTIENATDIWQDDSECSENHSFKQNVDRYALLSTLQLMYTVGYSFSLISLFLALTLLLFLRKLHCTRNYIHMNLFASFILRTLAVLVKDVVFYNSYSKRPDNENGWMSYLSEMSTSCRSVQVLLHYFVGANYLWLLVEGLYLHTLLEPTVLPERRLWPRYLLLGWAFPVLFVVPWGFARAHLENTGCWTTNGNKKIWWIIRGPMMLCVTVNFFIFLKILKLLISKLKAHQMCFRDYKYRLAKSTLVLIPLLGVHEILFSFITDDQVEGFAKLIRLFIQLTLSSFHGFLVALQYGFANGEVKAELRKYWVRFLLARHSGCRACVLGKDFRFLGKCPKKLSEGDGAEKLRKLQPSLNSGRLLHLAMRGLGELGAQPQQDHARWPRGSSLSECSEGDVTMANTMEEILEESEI

[5] = colon weight relative to body weight, relative to ZP1559
[6] = small intestine weight relative to body weight, relative to ZP1559
[7] = 200 nmol/kg s.c. once daily for 3 days
[8] = 200 nmol/kg s.c. once daily for 3 days, relative to 1559

## N[C@@H](Cc1c[nH]c2ccccc12)C(=O)O [Trp]
[1]
  HBP for the individual amino acids: 1

## NCC(=O)O [Gly]
[1]
  HBP for the individual amino acids: 0

## NC(=O)CC[C@H](N)C(=O)O [Gln]
[1]
  HBP for the individual amino acids: 3

## NCCCC[C@H](N)C(=O)O [Lys]
[1]
  HBP for the individual amino acids: 2

## N=C(N)NCCC[C@H](N)C(=O)O [Arg]
[1]
  HBP for the individual amino acids: 3

## N[C@@H](Cc1c[nH]cn1)C(=O)O [His]
[1]
  HBP for the individual amino acids: 1

## CSCC[C@H](N)C(=O)O [Met]
[1]
  HBP for the individual amino acids: 0

## N[C@@H](CO)C(=O)O [Ser]
[1]
  HBP for the individual amino acids: 2

## C[C@@H](O)[C@H](N)C(=O)O [Thr]
[1]
  HBP for the individual amino acids: 2

## O=C(O)[C@@H]1CCCN1 [Pro]
[1]
  HBP for the individual amino acids: 0

## N[C@@H](Cc1ccc(O)cc1)C(=O)O [Tyr]
[1]
  HBP for the individual amino acids: 2

## C[C@H](N)C(=O)O [Ala]
[1]
  HBP for the individual amino acids: 0

## NC(=O)C[C@H](N)C(=O)O [Asn]
[1]
  HBP for the individual amino acids: 3

## N[C@@H](CC(=O)O)C(=O)O [Asp]
[1]
  HBP for the individual amino acids: 3

## H-HGEGSFSSELSTILDALAARDFIAWLIATKITDK-OH [ZP2242]
Male C57BL mice [2]
  Colon-BW, compared to 1559 in %: 106.6%
  Preferential stimulation of epithelial growth in the small intestine (summary): preferentially stimulating epithelial growth in the small intestine
  SI-BW, compared to 1559 in %: 111.7%
  Sto-BW, compared to 1559 in %: 99.6%
  Colon: 107 ± 3%
  SI (% vs. [Gly2]GLP-2: 111 ± 2%
Male C57BL mice [2]; relative to 1559
  Sensitivity index Si/Colon: 1.05
  Sensitivity index Stomach/Co: 0.93
Male C57BL mice [3]; ratio Stomach-BW / Colon-BW
  Sensitivity index Stomach/Co: 0.93
Male C57BL mice [3]; stomach weight relative to body weight, relative to ZP1559
  Stomach-BW, compared to 1559 in %: 99.6%
Male C57BL mice [4]; [5]
  Colon-BW, compared to 1559 in %: 106.6%
Male C57BL mice [4]; ratio SI-BW / Colon-BW
  Sensitivity index Si/Co: 1.05
Male C57BL mice [4]; [6]
  SI-BW, compared to 1559 in %: 111.7%

## N[C@@H](Cc1ccccc1)C(=O)O [Phe]
[1]
  HBP for the individual amino acids: 0

## N[C@@H](CS)C(=O)O [Cys]
[1]
  HBP for the individual amino acids: 0

## N[C@@H](CCC(=O)O)C(=O)O [Glu]
[1]
  HBP for the individual amino acids: 3

## CC(C)C[C@H](N)C(=O)O [Leu]
[1]
  HBP for the individual amino acids: 0

## CC(C)[C@H](N)C(=O)O [Val]
[1]
  HBP for the individual amino acids: 0

## H-HGEGSFSDELATILEALAAADFIAWLISTKITD-NH2 [ZP2397]
Male C57BL mice [3]; [7]
  Sto-BW, compared to 1559 in %: 109%
Male C57BL mice [3]; [8]
  Sensitivity index Stomach/Co: 1.08
Male C57BL mice [3]; ratio Stomach-BW / Colon-BW
  Sensitivity index Stomach/Co: 1.08
Male C57BL mice [4]; [7]
  Colon-BW, compared to 1559 in %: 101%
  Preferential stimulation of epithelial growth in the small intestine (summary): preferentially stimulating epithelial growth in the small intestine
  SI-BW, compared to 1559 in %: 122%
  Selectivity for small intestinal mass relative to colon mass (FIG. 6): selectively increase small intestinal mass, relative to colon mass
  Sensitivity index Si/Colon: 1.21
Male C57BL mice [4]; [5]
  Colon-BW, compared to 1559 in %: 101%
Male C57BL mice [4]; [6]
  SI-BW, compared to 1559 in %: 122%

## H-[Gly2]hGLP-2-OH (H-HGDGSFSDEMNTILDNLAARDFINWLIQTKITD-OH) [[Gly2]GLP-2, GLP-2 with alanine in position 2 replaced with glycine, reference compound]
Male C57BL mice [2]; (SI/Colon)x/(SI/Colon)[Gly2]GLP-2
  Small intestine-colon sensitivity index: 1.00 ± 0.02
Male C57BL mice [2]
  Colon: 100 ± 2%
  SI (% vs. [Gly2]GLP-2: 100 ± 1%

## H-HGEGSFSDELATI LEALAASDFIAWLIATKITDKKKKKK-NH2 [ZP2423]
Male C57BL mice [3]; [7]
  Sto-BW, compared to 1559 in %: 94%
Male C57BL mice [3]; [8]
  Sensitivity index Stomach/Co: 0.86
Male C57BL mice [3]; ratio Stomach-BW / Colon-BW
  Sensitivity index Stomach/Co: 0.86
Male C57BL mice [4]; [7]
  Colon-BW, compared to 1559 in %: 109%
  Preferential stimulation of epithelial growth in the small intestine (summary): preferentially stimulating epithelial growth in the small intestine
  SI-BW, compared to 1559 in %: 123%
  Selectivity for small intestinal mass relative to colon mass (FIG. 6): selectively increase small intestinal mass, relative to colon mass
  Sensitivity index Si/Colon: 1.13
Male C57BL mice [4]; [5]
  Colon-BW, compared to 1559 in %: 109%
Male C57BL mice [4]; [6]
  SI-BW, compared to 1559 in %: 123%

## H-HGEGSFSDELSTILEALAASDFISWLISTKITD-NH2 [ZP2398]
Male C57BL mice [3]; [7]
  Sto-BW, compared to 1559 in %: 102%
Male C57BL mice [3]; [8]
  Sensitivity index Stomach/Co: 1.05
Male C57BL mice [3]; ratio Stomach-BW / Colon-BW
  Sensitivity index Stomach/Co: 1.05
Male C57BL mice [4]; [7]
  Colon-BW, compared to 1559 in %: 97%
  Preferential stimulation of epithelial growth in the small intestine (summary): preferentially stimulating epithelial growth in the small intestine
  SI-BW, compared to 1559 in %: 108%
  Selectivity for small intestinal mass relative to colon mass (FIG. 6): selectively increase small intestinal mass, relative to colon mass
  Sensitivity index Si/Colon: 1.11
Male C57BL mice [4]; [5]
  Colon-BW, compared to 1559 in %: 97%
Male C57BL mice [4]; [6]
  SI-BW, compared to 1559 in %: 108%

## H-HGEGSFSDELSTILESLAASDFISWLISTKITDKKKKKK-NH2 [ZP2380]
Male C57BL mice [3]; [7]
  Sto-BW, compared to 1559 in %: 98%
Male C57BL mice [3]; [8]
  Sensitivity index Stomach/Co: 0.96
Male C57BL mice [3]; ratio Stomach-BW / Colon-BW
  Sensitivity index Stomach/Co: 0.96
Male C57BL mice [4]; [7]
  Colon-BW, compared to 1559 in %: 102%
  Preferential stimulation of epithelial growth in the small intestine (summary): preferentially stimulating epithelial growth in the small intestine
  SI-BW, compared to 1559 in %: 108%
  Selectivity for small intestinal mass relative to colon mass (FIG. 6): selectively increase small intestinal mass, relative to colon mass
  Sensitivity index Si/Colon: 1.06
Male C57BL mice [4]; [5]
  Colon-BW, compared to 1559 in %: 102%
Male C57BL mice [4]; [6]
  SI-BW, compared to 1559 in %: 108%

B1: ZP2266 (peptide)
peptide: H-HGEGSFSDELETILEELAAEDFIEWLIETKITD-NH2
hGLP-2 receptor
  pEC50 (CRE-luciferase reporter, BHK-21 cells transiently transfected with hGLP-2 receptor): 9.25

B2: ZP2263 (peptide)
peptide: H-HGEGSFSDELSTILESLAASDFISWLISTKITD-NH2
hGLP-2 receptor
  pEC50 (CRE-luciferase reporter, BHK-21 cells transiently transfected with hGLP-2 receptor): 10.8

B3: ZP2264 (peptide)
peptide: H-HGEGSFSDELATILEALAAADFIAWLIATKITD-NH2
hGLP-2 receptor
  pEC50 (CRE-luciferase reporter, BHK-21 cells transiently transfected with hGLP-2 receptor): 11.5

B4: ZP2267 (peptide)
peptide: H-HGEGSFSDELSTILESLAAADFIAWLIATKITD-NH2
hGLP-2 receptor
  pEC50 (CRE-luciferase reporter, BHK-21 cells transiently transfected with hGLP-2 receptor): 10.9
